What follows are compounds tested against human PDE1b enzyme (Homo sapiens (Human), UniProt Q01064) (assay: PDE1b inhibitory assay (IMAP TR-FRET)). Conditions: not given.
Compound `COc1ccc(Cn2c(=O)n3ncnc3c3c4c(sc32)CN(C2CS(=O)(=O)C2)CC4)cc1` [Example 124, 9-(1,1-Dioxidothietan-3-yl)-6-(4-methoxybenzyl)-8,9,10,11-tetrahydropyrido[4′,3′:4,5]thieno[3,2-e][1,2,4]triazolo[1,5-c]pyrimidin-5 (6H)-one] has an EC50 of 100 to 1000 nM.

Same assay, conditions: negative log of half-maximal molar inhibitory concentration; 200 nM FAM-cAMP; reported as ranges
In the case of `COc1ccc(Cn2c(=O)n3ncnc3c3c4c(sc32)CN(Cc2ccccn2)CC4)cc1` [Example 120, 6-(4-Methoxybenzyl)-9-(pyridin-2-ylmethyl)-8,9,10,11-tetrahydropyrido[4′,3′:4,5]thieno[3,2-e][1,2,4]triazolo[1,5-c]pyrimidin-5 (6H)-one], the “PDE1b (pEC50)” value is reported as greater than 7.
For `COc1ccc(Cn2c(=O)n3ncnc3c3c4c(sc32)CN(Cc2ccncc2)CC4)cc1` [Example 121, 6-(4-Methoxybenzyl)-9-(pyridin-4-ylmethyl)-8,9,10,11-tetrahydropyrido[4′,3′:4,5]thieno[3,2-e][1,2,4]triazolo[1,5-c]pyrimidin-5(6H)-one], the “PDE1b (pEC50)” value was greater than 7.
With `COc1ccc(Cn2c(=O)n3ncnc3c3c4c(sc32)CN(Cc2nccn2C)CC4)cc1` [Example 122, 6-(4-Methoxybenzyl)-9-((1-methyl-1H-imidazol-2-yl)methyl)-8,9,10,11-tetrahydropyrido[4′,3′:4,5]thieno[3,2-e][1,2,4]triazolo[1,5-c]pyrimidin-5(6H)-one] the “PDE1b (pEC50)” value was greater than 7.
For `COc1ccc(Cn2c(=O)n3ncnc3c3c4c(sc32)CN(Cc2scnc2C)CC4)cc1` [Example 123], the “PDE1b (pEC50)” value was greater than 7.
For `COc1ccc(Cn2c(=O)n3ncnc3c3c4c(sc32)CN(CC2COCCO2)CC4)cc1` (stereo not shown) [Example 125, 9-((1,4-Dioxan-2-yl)methyl)-6-(4-methoxybenzyl)-8,9,10,11-tetrahydropyrido[4′,3′:4,5]thieno[3,2-e][1,2,4]triazolo[1,5-c]pyrimidin-5(6H)-one], the “PDE1b (pEC50)” value was greater than 7.
`COc1ccc(Cn2c(=O)n3ncnc3c3c4c(sc32)CN(CC2CCC(=O)O2)CC4)cc1` (stereo not shown) [Example 126] was tested, and the “PDE1b (pEC50)” value was greater than 7.
`COc1ccc(Cn2c(=O)n3ncnc3c3c4c(sc32)CN(Cc2ccc(F)cc2)CC4)cc1` [Example 127, 9-(4-Fluorobenzyl)-6-(4-methoxybenzyl)-8,9,10,11-tetrahydropyrido[4′,3′:4,5]thieno[3,2-e][1,2,4]triazolo[1,5-c]pyrimidin-5(6H)-one] was tested, and the “PDE1b (pEC50)” value was greater than 7.
With `COc1ccc(Cn2c(=O)n3ncnc3c3c4c(sc32)CN(Cc2ccccc2F)CC4)cc1` [Example 128, 9-(2-Fluorobenzyl)-6-(4-methoxybenzyl)-8,9,10,11-tetrahydropyrido[4′,3′:4,5]thieno[3,2-e][1,2,4]triazolo[1,5-c]pyrimidin-5(6H)-one] the “PDE1b (pEC50)” value was greater than 7.
With `O=c1n(Cc2ccc(Cl)cc2F)c2sc3c(c2c2ncnn12)CCN(Cc1ccccn1)C3` [Example 130, 6-(4-Chloro-2-fluorobenzyl)-9-(pyridin-2-ylmethyl)-8,9,10,11-tetrahydropyrido[4′,3′:4,5]thieno[3,2-e][1,2,4]triazolo[1,5-c]pyrimidin-5 (6H)-one] the “PDE1b (pEC50)” value was greater than 7.
In the case of `Cn1ccnc1CN1CCc2c(sc3c2c2ncnn2c(=O)n3Cc2ccc(Cl)cc2F)C1` [Example 131], the “PDE1b (pEC50)” value is reported as greater than 7.
`O=c1n(Cc2ccc(Cl)cc2F)c2sc3c(c2c2ncnn12)CCN(Cc1ncccn1)C3` [Example 132, 6-(4-Chloro-2-fluorobenzyl)-9-(pyrimidin-2-ylmethyl)-8,9,10,11-tetrahydropyrido[4′,3′:4,5]thieno[3,2-e][1,2,4]triazolo[1,5-c]pyrimidin-5 (6H)-one] was tested, and the “PDE1b (pEC50)” value was greater than 7.
In the case of `COc1ccc(Cn2c(=O)n3ncnc3c3c4c(sc32)CN(CC2CCCOC2)CC4)cc1` (stereo not shown) [Example 134, 6-(4-Methoxybenzyl)-9-((tetrahydro-2H-pyran-3-yl)methyl)-8,9,10,11-tetrahydropyrido[4′,3′:4,5]thieno[3,2-e][1,2,4]triazolo[1,5-c]pyrimidin-5(6H)-one], the “PDE1b (pEC50)” value is reported as greater than 7.
With `COc1ccc(Cn2c(=O)n3ncnc3c3c4c(sc32)CN(CC2CCCOC2)CC4(F)F)cc1` (stereo not shown) [Example 136, 11,11-Difluoro-6-(4-methoxybenzyl)-9-((tetrahydro-2H-pyran-3-yl)methyl)-8,9,10,11-tetrahydropyrido[4′,3′:4,5]thieno[3,2-e][1,2,4]triazolo[1,5-c]pyrimidin-5(6H)-one] the “PDE1b (pEC50)” value was greater than 7.
In the case of `COc1ccc(Cn2c(=O)n3ncnc3c3c4c(sc32)CN(Cc2ncccn2)CC4)c(F)c1` [Example 137, 6-(2-Fluoro-4-methoxybenzyl)-9-(pyrimidin-2-ylmethyl)-8,9,10,11-tetrahydropyrido[4′,3′:4,5]thieno[3,2-e][1,2,4]triazolo[1,5-c]pyrimidin-5 (6H)-one], the “PDE1b (pEC50)” value is reported as greater than 7.
`COc1ccc(Cn2c(=O)n3ncnc3c3c4c(sc32)CN(Cc2nccn2C)CC4)c(F)c1` [Example 138, 6-(2-Fluoro-4-methoxybenzyl)-9-((1-methyl-1H-imidazol-2-yl)methyl)-8,9,10,11-tetrahydropyrido[4′,3′:4,5]thieno[3,2-e][1,2,4]triazolo[1,5-c]pyrimidin-5(6H)-one] was tested, and the “PDE1b (pEC50)” value was greater than 7.
In the case of `COc1ccc(Cn2c(=O)n3ncnc3c3c4c(sc32)CN(Cc2ccccn2)CC4)c(F)c1` [Example 139, 6-(2-Fluoro-4-methoxybenzyl)-9-(pyridin-2-ylmethyl)-8,9,10,11-tetrahydropyrido[4′,3′:4,5]thieno[3,2-e][1,2,4]triazolo[1,5-c]pyrimidin-5 (6H)-one], the “PDE1b (pEC50)” value is reported as greater than 7.
With `COc1ccc(Cn2c(=O)n3ncnc3c3c4c(sc32)CN(CC2CCOC2)CC4)c(F)c1` (stereo not shown) [Example 140, 6-(2-Fluoro-4-methoxybenzyl)-9-((tetrahydrofuran-3-yl)methyl)-8,9,10,11-tetrahydropyrido[4′,3′:4,5]thieno[3,2-e][1,2,4]triazolo[1,5-c]pyrimidin-5(6H)-one] the “PDE1b (pEC50)” value was greater than 7.
`COc1ccc(Cn2c(=O)n3ncnc3c3c4c(sc32)CN(CC2CCCOC2)CC4)c(F)c1` (stereo not shown) [Example 142, 6-(2-Fluoro-4-methoxybenzyl)-9-((tetrahydro-2H-pyran-3-yl)methyl)-8,9,10,11-tetrahydropyrido[4′,3′:4,5]thieno[3,2-e][1,2,4]triazolo[1,5-c]pyrimidin-5(6H)-one] was tested, and the “PDE1b (pEC50)” value was greater than 7.
`COc1ccc(Cn2c(=O)n3ncnc3c3c4c(sc32)CN(CC2CCOC2)CCC4)cc1` (stereo not shown) [Example 143, 6-(4-Methoxybenzyl)-9-((tetrahydrofuran-3-yl)methyl)-6,8,9,10,11,12-hexahydro-5H-[1,2,4]triazolo[1″,5″:1%6′]pyrimido[5′,4′:4,5]thieno[2,3-c]azepin-5-one] was tested, and the “PDE1b (pEC50)” value was greater than 7.
`COc1ccc(Cn2c(=O)n3ncnc3c3c4c(sc32)CN(Cc2nccn2C)CCC4)cc1` [Example 144, 6-(4-Methoxybenzyl)-9-((1-methyl-1H-imidazol-2-yl)methyl)-6,8,9,10,11,12-hexahydro-5H-[1,2,4]triazolo[1″,5″:1′,6′]pyrimido[5′,4′:4,5]thieno[2,3-c]azepin-5-one] was tested, and the “PDE1b (pEC50)” value was greater than 7.
In the case of `COc1ccc(Cn2c(=O)n3ncnc3c3c4c(sc32)CN(Cc2ncccn2)CCC4)cc1` [Example 145, 6-(4-Methoxybenzyl)-9-(pyrimidin-2-ylmethyl)-6,8,9,10,11,12-hexahydro-5H-[1,2,4]triazolo[1″,5″:1′,6]pyrimido[5′,4′:4,5]thieno[2,3-c]azepin-5-one], the “PDE1b (pEC50)” value is reported as greater than 7.

From patent US10092575B2, “Substituted thiophene- and furan-fused azolopyrimidine-5-(6H)-one compounds” (DART NEUROSCIENCE (CAYMAN) LTD., priority 2012, dated 2018)
